Results on 3 substances are retold here after patent publication US6610289B2, “Mutated herpes simplex virus type 1 thymidine kinases and uses thereof” (The Board of Trustees of the University of Arkansas, priority 1998, dated 2003).

One experiment relates to NIH3T3 cells. Kind of experiment: Metabolic labeling with [^3H]GCV, NIH3T3 cell clones. Type of experiment: cell-based, murine. The conditions noted are these: 3T3. The method, then:
(§1) For metabolic labeling, cells (1-2×10^6) were labeled in triplicate with 2 μCi [^3H]GCV ([…]) for 18 hours, then nucleotides were extracted from pelleted cells in 0.2 ml 70% methanol at 4° C. for 15 minutes as previously described (21, 24). An aliquot of each methanol soluble supernatant was analyzed for radioactivity by scintillation counting. The methanol insoluble pellets, representative of a crude DNA fraction, were resuspended in 0.15 ml water and also counted for radioactivity. For deoxpyrimidines, cells were grown to confluency in 60 cm^2 plates, and either 2 μCi [^3H]thymidine (2 μM final) or 2 μCi [^3H]dC (10 μM final) were added for 1 or 2 hours respectively prior to extraction in 70% methanol. Methanol-soluble extracts were concentrated by evaporation under nitrogen, and separated on PEI-cellulose thin layer chromatography plates developed in 0.8 M LiCl for GCV or 0.35 M LiCl for thymidine/dC as previously described (21).
(§2) NIH3T3 fibroblasts and the human tumor cell line HCT-116 were transfected with wild-type HSV-1TK or with one of three site specific mutants of amino acid Gln-125. From a panel of multiple HSV-1TK expressing clones, a subset of clones from each cell line expressing wild-type HSV-1 TK, the Asn-125 HSV-1 TK mutant (Asn-125TK) and the Glu-125 HSV-1 TK mutant (Glu-125TK) were selected for comparatively equivalent levels of HSV-1 TK protein expression based on Western blot determinations. In this study, these two sets of HSV-1 TK-expressing NIH 3T3 and HCT-116 cell lines were evaluated for intracellular metabolism of [^3H]GCV, [^3H]thymidine, or [^3H]dC. Cells were labeled with [^3H]GCV for 18 hours, then nucleotides were extracted in ice-cold 70% methanol as previously described (21, 24). The data in Table 3 summarize the amount of total nucleotide metabolites isolated in the methanol-soluble extracts (pmol/10^6 cells) as well as the total amount of methanol-insoluble metabolites representative of incorporation into DNA. The Asn-125TK metabolizes GCV at (or near) equal levels to the wild-type HSV-TK in both cell lines. The methanol-insoluble data, while only a crude indicator of [^3H]GCV incorporation into DNA, reflects the numbers obtained with the soluble extracts. As compared with the non-HSV-TK-expressing HCT-116 cells and consistent with data in the previous study (24), minimal [^3H]GCV metabolism was detected in the Asp-125TK cells and these cells were not further evaluated.
The methanol-soluble metabolites were further separated into their constituent phosphorylated GCV metabolites by thin layer chromatography (21). As presented in Table 4, the predominant metabolite in each HSV-TK-expressing cell line was GCVTP. In both HCT-116 and NIH3T3 cell lines, the Asn-125TK cells indicated slightly higher levels of GCVTP as compared to wild-type HSV-1 TK cell lines. […] This difference in the levels of GCVTP in the two Glu-125TK expressing cell lines could explain the lack of sensitivity to GCV killing observed for the NIH3T3 Glu-125TK cell lines.

Another experiment deals with HCT-116 cells. Kind of experiment: Metabolic labeling with [^3H]GCV, [^3H]thymidine, [^3H]dC, HCT-116 cell clones. The conditions noted are these: for Phosphorylated metabolite GCVDP / Phosphorylated metabolite GCVMP / Phosphorylated metabolite GCVTP: 116; for Phosphorylated metabolite TMP / Phosphorylated metabolite TTP: 116, [^3H]thymidine labeled. Type of experiment: cell-based, human. The protocol:
as §1
as §2, with “DNA.” for “DNA. The Asn-125TK metabolizes GCV at (or near) equal levels to the wild-type HSV-TK in both cell lines. The methanol-insoluble data, while only a crude indicator of [^3H]GCV incorporation into DNA, reflects the numbers obtained with the soluble extracts. As compared with the non-HSV-TK-expressing HCT-116 cells and consistent with data in the previous study (24), minimal [^3H]GCV metabolism was detected in the Asp-125TK cells and these cells were not further evaluated.”
The methanol-soluble metabolites were further separated into their constituent phosphorylated GCV metabolites by thin layer chromatography (21).
Cells were grown to confluency and labeled with either [^3H]thymidine or [^3H]dC for 1 or 2 hours respectively prior to methanol extraction.

Where only a bound is given, the exact number is not on record here.

In the case of Asn-125, in the experiment with NIH3T3 cells, the “Phosphorylated metabolite GCVDP” value amounted to 21 pmol/10^6 cells, the “Phosphorylated metabolite GCVMP” value is listed as 11 pmol/10^6 cells and the “Phosphorylated metabolite GCVTP” value was determined as 272 pmol/10^6 cells. In the experiment on HCT-116 cells, the “Phosphorylated metabolite GCVDP” value worked out at 104 pmol/10^6 cells, the “Phosphorylated metabolite GCVMP” value is given as 95 pmol/10^6 cells, the “Phosphorylated metabolite GCVTP” value stood at 533 pmol/10^6 cells and the “Phosphorylated metabolite TMP” value stood at 0.2 pmol/10^6 cells. In addition, the “Phosphorylated metabolite TTP” value with HCT-116 cells is reported as 0.9 pmol/10^6 cells.
For “Gln-125 (WT): wild-type herpes simplex virus type 1 thymidine kinase with glutamine at position 125, parent enzyme [reference compound]”, in the experiment with NIH3T3 cells, the “Phosphorylated metabolite GCVDP” value came to 22 pmol/10^6 cells, the “Phosphorylated metabolite GCVMP” value was 12 pmol/10^6 cells and the “Phosphorylated metabolite GCVTP” value amounted to 232 pmol/10^6 cells. Also, in the experiment on HCT-116 cells, the “Phosphorylated metabolite GCVDP” value turned out to be 101 pmol/10^6 cells, the “Phosphorylated metabolite GCVMP” value was determined as 96 pmol/10^6 cells, the “Phosphorylated metabolite GCVTP” value is on record as 415 pmol/10^6 cells and the “Phosphorylated metabolite TMP” value stood at 1.2 pmol/10^6 cells. For the same substance, in the experiment on HCT-116 cells, the “Phosphorylated metabolite TTP” value is 9.5 pmol/10^6 cells.
Glu-125: in the experiment on NIH3T3 cells, the “Phosphorylated metabolite GCVDP” value is recorded as 0 pmol/10^6 cells, the “Phosphorylated metabolite GCVMP” value worked out at 0 pmol/10^6 cells and the “Phosphorylated metabolite GCVTP” value is recorded as 1.6 pmol/10^6 cells. In addition, in the experiment on HCT-116 cells, the “Phosphorylated metabolite GCVDP” value worked out at 2.5 pmol/10^6 cells, the “Phosphorylated metabolite GCVMP” value was 3.0 pmol/10^6 cells, the “Phosphorylated metabolite GCVTP” value worked out at 18 pmol/10^6 cells and the “Phosphorylated metabolite TMP” value came out at 0.2 pmol/10^6 cells. Also, the “Phosphorylated metabolite TTP” value in the experiment on HCT-116 cells stood at 0.4 pmol/10^6 cells. Besides, in the experiment on HCT-116 cells (HCT-116 cells, compared to wild-type and Asn-125TK cells), the “Decrease in GCVTP levels” value is at least 23 fold.
